Assay results published in patent US20180249707A1, “METHOD OF CONTROLLING ALGAE IN A BODY OF WATER” (priority 2013, published 2018).

Tested on: Microcystis aeruginosa
Experiment: 14-day flask exposure of Microcystis aeruginosa to BADA
Format: cell-based
Procedure: The experiment was conducted for 14 days and was initiated using 100 mL BG-11 medium contained in 200 mL flasks. […] The experiment was initiated by exposing the algae to 0.2, 0.4, 0.8, 1.0, 1.2, 1.4, 1.8, and 2.0 ppm (mg/L) as BADA, 0.5 Cu/L Cutrine®-Plus. The solution was heated in a water bath and diluted to 70 mg/L using warmed deionized water. Cutrine®-Plus stock solution was made at 50 mg/L using deionized water. Three replicates of each exposure concentration, along with three replicates of an untreated reference were tested. Each sample was maintained at room temperature with 12-hours of light and 12-h dark photoperiod. The chlorophyll a concentrations of Microcystis aeruginosa through the 14 day exposure after exposure to concentrations of BADA and Cutrine®-Plus. The results are shown in TABLES 5, and 6, which show the chlorophyll a concentration and the cell density, respectively.

## CCCCCCCCCCCCN(CCCN)CCCN [BADA, N,N-bis-(3-aminopropyl) dodecylamine]
0.2 to 2.0 ppm (mg/L), by 15 days after start, p<0.01
  Chlorophyll a content of M. aeruginosa compared to untreated control algae: reduced
BADA 0.2 ppm, day 0 (initial)
  Cell density of M. aeruginosa cultures: 5.7E+05 cells/mL
  In vivo chlorophyll a concentrations of M. aeruginosa cultures: 0.90 µg/L
BADA 0.2 ppm, day 3
  In vivo chlorophyll a concentrations of M. aeruginosa cultures: 0.28 µg/L
BADA 0.2 ppm, day 7
  Cell density of M. aeruginosa cultures: <1E+04 cells/mL
  In vivo chlorophyll a concentrations of M. aeruginosa cultures: 0.06 µg/L
BADA 0.2 ppm, day 14
  Cell density of M. aeruginosa cultures: <1E+04 cells/mL
  In vivo chlorophyll a concentrations of M. aeruginosa cultures: 0.02 µg/L
BADA 0.4 ppm, day 0 (initial)
  Cell density of M. aeruginosa cultures: 5.7E+05 cells/mL
  In vivo chlorophyll a concentrations of M. aeruginosa cultures: 0.90 µg/L
BADA 0.4 ppm, day 3
  In vivo chlorophyll a concentrations of M. aeruginosa cultures: 0.23 µg/L
BADA 0.4 ppm, day 7
  Cell density of M. aeruginosa cultures: <1E+04 cells/mL
  In vivo chlorophyll a concentrations of M. aeruginosa cultures: 0.03 µg/L
BADA 0.4 ppm, day 14
  Cell density of M. aeruginosa cultures: <1E+04 cells/mL
  In vivo chlorophyll a concentrations of M. aeruginosa cultures: 0.02 µg/L
BADA 0.8 ppm, day 0 (initial)
  Cell density of M. aeruginosa cultures: 5.7E+05 cells/mL
  In vivo chlorophyll a concentrations of M. aeruginosa cultures: 0.90 µg/L
BADA 0.8 ppm, day 3
  In vivo chlorophyll a concentrations of M. aeruginosa cultures: 0.26 µg/L
BADA 0.8 ppm, day 7
  Cell density of M. aeruginosa cultures: <1E+04 cells/mL
  In vivo chlorophyll a concentrations of M. aeruginosa cultures: 0.03 µg/L
BADA 0.8 ppm, day 14
  Cell density of M. aeruginosa cultures: <1E+04 cells/mL
  In vivo chlorophyll a concentrations of M. aeruginosa cultures: 0.02 µg/L
BADA 1.0 ppm, day 0 (initial)
  Cell density of M. aeruginosa cultures: 5.7E+05 cells/mL
  In vivo chlorophyll a concentrations of M. aeruginosa cultures: 0.90 µg/L
BADA 1.0 ppm, day 3
  In vivo chlorophyll a concentrations of M. aeruginosa cultures: 0.31 µg/L
BADA 1.0 ppm, day 7
  Cell density of M. aeruginosa cultures: <1E+04 cells/mL
  In vivo chlorophyll a concentrations of M. aeruginosa cultures: 0.05 µg/L
BADA 1.0 ppm, day 14
  Cell density of M. aeruginosa cultures: <1E+04 cells/mL
  In vivo chlorophyll a concentrations of M. aeruginosa cultures: 0.02 µg/L
BADA 1.2 ppm, day 0 (initial)
  Cell density of M. aeruginosa cultures: 5.7E+05 cells/mL
  In vivo chlorophyll a concentrations of M. aeruginosa cultures: 0.90 µg/L
BADA 1.2 ppm, day 3
  In vivo chlorophyll a concentrations of M. aeruginosa cultures: 0.29 µg/L
BADA 1.2 ppm, day 7
  Cell density of M. aeruginosa cultures: <1E+04 cells/mL
  In vivo chlorophyll a concentrations of M. aeruginosa cultures: 0.04 µg/L
BADA 1.2 ppm, day 14
  Cell density of M. aeruginosa cultures: <1E+04 cells/mL
  In vivo chlorophyll a concentrations of M. aeruginosa cultures: 0.02 µg/L
BADA 1.4 ppm, day 0 (initial)
  Cell density of M. aeruginosa cultures: 5.7E+05 cells/mL
  In vivo chlorophyll a concentrations of M. aeruginosa cultures: 0.90 µg/L
BADA 1.4 ppm, day 3
  In vivo chlorophyll a concentrations of M. aeruginosa cultures: 0.29 µg/L
BADA 1.4 ppm, day 7
  Cell density of M. aeruginosa cultures: <1E+04 cells/mL
  In vivo chlorophyll a concentrations of M. aeruginosa cultures: 0.04 µg/L
BADA 1.4 ppm, day 14
  Cell density of M. aeruginosa cultures: <1E+04 cells/mL
  In vivo chlorophyll a concentrations of M. aeruginosa cultures: 0.01 µg/L
BADA 1.8 ppm, day 0 (initial)
  Cell density of M. aeruginosa cultures: 5.7E+05 cells/mL
  In vivo chlorophyll a concentrations of M. aeruginosa cultures: 0.90 µg/L
BADA 1.8 ppm, day 3
  In vivo chlorophyll a concentrations of M. aeruginosa cultures: 0.32 µg/L
BADA 1.8 ppm, day 7
  Cell density of M. aeruginosa cultures: <1E+04 cells/mL
  In vivo chlorophyll a concentrations of M. aeruginosa cultures: 0.03 µg/L
BADA 1.8 ppm, day 14
  Cell density of M. aeruginosa cultures: <1E+04 cells/mL
  In vivo chlorophyll a concentrations of M. aeruginosa cultures: 0.02 µg/L
BADA 2.0 ppm, day 0 (initial)
  Cell density of M. aeruginosa cultures: 5.7E+05 cells/mL
  In vivo chlorophyll a concentrations of M. aeruginosa cultures: 0.90 µg/L
BADA 2.0 ppm, day 3
  In vivo chlorophyll a concentrations of M. aeruginosa cultures: 0.40 µg/L
BADA 2.0 ppm, day 7
  Cell density of M. aeruginosa cultures: <1E+04 cells/mL
  In vivo chlorophyll a concentrations of M. aeruginosa cultures: 0.03 µg/L
BADA 2.0 ppm, day 14
  Cell density of M. aeruginosa cultures: <1E+04 cells/mL
  In vivo chlorophyll a concentrations of M. aeruginosa cultures: 0.01 µg/L
